± gives the standard deviation of the averaged measurements.
Test system: HepaRG
Experiment: LDH release cytotoxicity, % of total lysis control; higher = more cytotoxic
Conditions: 48 h
Summary of the method: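 Single-lot HepaRG cells in collagen I-coated 96-well plates were treated for 48 h in serum-free induction medium containing 0.5% DMSO with test chemicals in eight-point half-log series up to 100 µM. For total lysis, wells received 0.1% Triton X. LDH in 50 µL spent medium was assayed by resorufin fluorescence with CytoTox-ONE. Percent cytotoxicity was normalized to the on-plate vehicle and total lysis controls, with duplicates averaged.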

SMILES | LDH release cytotoxicity (0.1 µM) [%] | LDH release cytotoxicity (1 µM) [%] | LDH release cytotoxicity (3.16228 µM) [%] | LDH release cytotoxicity (10 µM) [%] | LDH release cytotoxicity (31.6228 µM) [%] | LDH release cytotoxicity (100 µM) [%] | LDH release cytotoxicity (0.03162 µM) [%] | LDH release cytotoxicity (0.3162278 µM) [%] | further results
ClC1(Cl)C2(Cl)C3(Cl)C4(Cl)C(Cl)(Cl)C5(Cl)C3(Cl)C1(Cl)C5(Cl)C24Cl (centres undefined) [Mirex] | -1.3 ± 1.1 | -2.25 ± 0.86 | -1.59 ± 0.079 | -1.21 ± 0.25 | -1.01 ± 0.41 | 0.619 ± 0.41 |  |  | LDH release cytotoxicity (0.031623 µM): 1.5 ± 0.54%; LDH release cytotoxicity (0.316228 µM): -1.85 ± 0.6%
NNC(=O)c1ccncc1 [Isoniazid] |  |  |  |  |  |  |  |  | LDH release cytotoxicity (0.013914 µM): -1.4 ± 0.98%; LDH release cytotoxicity (0.044 µM): -0.0891 ± 1.3%; LDH release cytotoxicity (0.13914 µM): -1.34 ± 0.49%; LDH release cytotoxicity (0.44 µM): -1.05 ± 1.1%; LDH release cytotoxicity (1.3914 µM): -1.62 ± 0.34%; LDH release cytotoxicity (4.4 µM): -0.682 ± 2%; LDH release cytotoxicity (13.914 µM): -0.843 ± 0.11%; LDH release cytotoxicity (44 µM): -0.0914 ± 0.33%
Oc1cc2ccccc2c2ccccc12 [9-Phenanthrol] | -2.29 ± 0.44 | -2.1 ± 0.98 | -2.21 ± 0.069 | -2.2 ± 0.41 | -2.94 ± 0.08 | 0.0725 ± 0.99 | -1.97 ± 0.66 | -2.11 ± 0.28 | 
O=C(Oc1ccccc1)c1cccc(C(=O)Oc2ccccc2)c1 [Diphenyl isophthalate] | -0.451 ± 0.024 | -0.13 ± 0.26 | -0.548 ± 1.1 | -0.00904 ± 1.2 | 0.842 ± 0.83 | 2.16 ± 1.3 | -0.961 ± 0.23 | -0.0836 ± 0.51 | 
O=C(O)Cc1ccccc1Nc1c(Cl)cccc1Cl [Diclofenac sodium] | -0.605 ± 0.41 | -0.678 ± 0.21 | -0.378 ± 0.25 | -0.578 ± 0.3 | 1.19 ± 0.14 | 12 ± 1 | 0.371 ± 0.76 | -1.36 ± 0.43 | 
CC(C)C1(C)N=C(c2ncccc2C(=O)O)NC1=O (centres undefined) [Imazapyr] | -1.02 ± 0.061 | -0.872 ± 0.078 | -0.897 ± 0.67 | -1.03 ± 0.39 | -0.823 ± 0.31 | 0.363 ± 0.9 | -1.83 ± 0.41 | -1.62 ± 0.63 | 
COc1ccccc1N [2-Anisidine] | -0.978 ± 0.2 | -0.865 ± 1.6 | -1.04 ± 0.64 | 0.222 ± 0.33 | 0.835 ± 0.33 | 4.39 ± 0.47 | -1.27 ± 0.34 | -0.111 ± 0.059 | 
CCC(C)Nc1c([N+](=O)[O-])cc(C(C)(C)C)cc1[N+](=O)[O-] (centres undefined) [Butralin] | -2.37 ± 1.2 | -1.89 ± 1.2 | -2.08 ± 0.85 | -2.15 ± 1.1 | -1.93 ± 1.3 | -1.58 ± 0.34 |  |  | LDH release cytotoxicity (0.031623 µM): -1.24 ± 0.48%; LDH release cytotoxicity (0.316228 µM): -1.26 ± 1%
c1cc2ccc3cccc4ccc(c1)c2c34 [Pyrene] | -1.34 ± 0.14 | -0.813 ± 0.25 | -0.783 ± 0.011 | -0.0329 ± 0.0016 | -0.764 ± 0.4 | -0.178 ± 0.085 | 0.277 ± 0.94 | -1.54 ± 0.5 | 
CC1=C2CC3C(CC=C4CC(O)CCC43C)C2CCC12OC1CC(C)CNC1C2C (centres undefined) [Cyclopamine] |  |  |  |  |  |  |  |  | LDH release cytotoxicity (0.015811 µM): -1.27 ± 1.2%; LDH release cytotoxicity (0.05 µM): -3.64 ± 1.3%; LDH release cytotoxicity (0.158114 µM): -4.31 ± 0.75%; LDH release cytotoxicity (0.5 µM): -4.01 ± 0.28%; LDH release cytotoxicity (1.58114 µM): -4.1 ± 0.11%; LDH release cytotoxicity (5 µM): -3.94 ± 0.67%; LDH release cytotoxicity (15.8114 µM): -2.45 ± 0.84%; LDH release cytotoxicity (50 µM): 0.363 ± 0.014%
CCCC1COC(Cn2cncn2)(c2ccc(Cl)cc2Cl)O1 (centres undefined) [Propiconazole] | -1.4 ± 0.43 | -0.956 ± 0.14 | -0.902 ± 0.17 | -0.927 ± 1 | 12.7 ± 3.1 | 26.8 ± 4 | -1.15 ± 0.41 | -1.43 ± 0.71 | 
c1ccc2cc3c(ccc4ccccc43)cc2c1 [Benz(a)anthracene] | -1.2 ± 0.19 | -1.2 ± 0.3 | -0.916 ± 0.025 | -0.353 ± 0.34 | -1.51 ± 0.18 | -1.17 ± 0.12 | 0.322 ± 0.091 | -1.02 ± 0.054 | 
COCCOCCOC [Diethylene glycol dimethyl ether] | -2.67 ± 0.22 | -2.68 ± 1.4 | -1.55 ± 0.41 | -0.488 ± 0.045 | -0.826 ± 0.12 | 0.75 ± 0.028 | -0.901 ± 0.75 | -2.41 ± 0.75 | 
COCCOc1cc2cc(C(=O)NC3CCN(C(C)C)CC3)n(CC(=O)Nc3ccc(Cl)cn3)c2cn1 | -0.956 ± 0.47 | -1.56 ± 0.7 | -0.955 ± 0.44 | -0.194 ± 0.17 | 13.4 ± 1 | 96.77 ± 0.093 | -0.433 ± 0.89 | -0.802 ± 0.14 | 
CNC(=O)Oc1ccccc1OC(C)C [Propoxur] | -0.642 ± 0.96 | -0.886 ± 0.72 | 0.431 ± 0.29 | -0.355 ± 1.1 | -0.0411 ± 0.99 | 2.29 ± 1.8 | -0.314 ± 0.63 | 0.0787 ± 1.4 | 
O=C(Nc1ccccc1)Nc1cnns1 [Thidiazuron] | -0.715 ± 0.86 | -0.873 ± 0.82 | -1.15 ± 0.018 | -0.652 ± 1.3 | -0.0499 ± 1.6 | 17.6 ± 3.5 | -1.24 ± 0.048 | -0.562 ± 0.16 | 
CCOP(=S)(OCC)SCn1c(=O)oc2cc(Cl)ccc21 [Phosalone] | -3.01 ± 0.25 | -2.28 ± 0.84 | -2.21 ± 0.19 | -2.4 ± 0.9 | -1.63 ± 1.2 | -1.09 ± 0.67 | -2.44 ± 0.92 | -2.19 ± 0.66 | 
O=C(Nc1ccccc1)c1ccccc1I [Benodanil] | -1.19 ± 1.3 | -2.02 ± 0.61 | -0.274 ± 0.0083 | 1.86 ± 0.57 | 5.86 ± 1.2 | 12.4 ± 0.34 | -1.25 ± 0.85 | -1.59 ± 0.61 | 

Source: the supplement of paper PMC7840683
